Our source for the IC50 values is patent US8501767B2, “Imidazopyridines and imidazopyrimidines as HIV-1 reverse transcriptase inhibitors” (CSIR, priority 2008, dated 2013).

Structures are written as SMILES.

A word on the IC50: it is the concentration at which inhibition is half-maximal.

Assay [1] relates to HIV-1. The assay can be described thus: Whole cell MAGI anti-HIV assay (MAGI-R5 cells, LTR-β-galactosidase reporter). The following applies: Human immunodeficiency virus 1, MAGI. The assay is classed as cell-based.
Assay [2] addresses HIV-1 reverse transcriptase (Human immunodeficiency virus type 1 group M subtype B (isolate HXB2) (HIV-1), UniProt P04585). The assay can be described thus: Enzymatic assay against HIV-1 reverse transcriptase (sandwich-ELISA, ROCHE colorimetric reverse transcriptase kit). Type of assay: biochemical. The following applies: 4-fold serial dilutions. On the procedure: Enzymatic Method for Determining Activity Against Reverse Transcriptase
Biotin and DIG-labelled nucleotides are incorporated into cDNA strands polymerized on an RNA template by the action of HIV-1 reverse transcriptase. The cDNA products are bound to streptavidin-coated wells of 96-well plate inserts, and their associated DIG-moieties detected by incubation with anti-DIG antibodies conjugated to horseradish peroxidase (HRP).
In the single concentration screen, compounds are incubated with HIV-1 reverse trancriptase and substrate and the residual enzyme activity expressed as a percentage relative to a control without inhibitor.
Background: In an ELISA, binding on a coated surface is turned into a signal by an enzyme label.

For assay [3], the system named is HIV-1. The assay can be described thus: Whole cell PBMC anti-HIV assay (human PBMCs, supernatant reverse transcriptase activity). Type of assay: cell-based. To be noted: Human immunodeficiency virus 1, PBMC. The method, then: Fresh human PBMCs, seronegative for HIV and HBV, were isolated from screened donors (Interstate Blood Bank, Inc. Memphis, Tenn.). Cells were pelleted/washed 2-3 times by low speed centrifugation and re-suspension in PBS to remove contaminating platelets. The Leukophoresed blood was then diluted 1:1 with Dulbecco's Phosphate Buffered Saline (DPBS) and layered over 14 mL of Lymphocyte Separation Medium (LSM; Cellgro® by Mediatech, Inc.; density 1.078+/−0.002 g/ml; Cat.#85-072-CL) in a 50 mL centrifuge tube and then centrifuged for 30 minutes at 600×g. Banded PBMCs were gently aspirated from the resulting interface and subsequently washed 2× with PBS by low speed centrifugation. […]
For the standard PBMC assay, PHA-P stimulated cells from at least two normal donors were pooled (mixed together), diluted in fresh medium to a final concentration of 1×10^6 cells/mL, and plated in the interior wells of a 96 well round bottom microplate at 50 μl/well (5×10^4 cells/well) in a standard format developed by the Infectious Disease Research department of Southern Research Institute. Pooling (mixing) of mononuclear cells from more than one donor is used to minimize the variability observed between individual donors, which results from quantitative and qualitative differences in HIV infection and overall response to the PHA and IL-2 of primary lymphocyte populations. […]

Consider `Clc1ccccc1-c1nc2cccc(Br)n2c1NC1CCCCC1` [Compound 42, 5-bromo-2-(2-chlorophenyl)-N-cyclohexylimidazo[1,2-a]pyridin-3-amine], for which the IC50 was determined as 3.15 µM in assay [1] and 4.62 µM in assay [2]. As for `Clc1ccccc1-c1nc2ccc(Br)cn2c1NC1CCCCC1` [Compound 99, 6-bromo-2-(2-chlorophenyl)-N-cyclohexylimidazo[1,2-a]pyridin-3-amine], the IC50 in assay [1] was determined as 2.19 µM; in assay [2] it was 12.2 µM. Consider `Clc1ccccc1-c1nc2cccc(Cl)n2c1NC1CCCC1` [Compound 48, 5-chloro-2-(2-chlorophenyl)-N-cyclopentylimidazo[1,2-a]pyridin-3-amine], for which the IC50 in assay [2] was determined as 5.14 µM. As for `Brc1ccccc1-c1nc2ccccn2c1NC1CCCCC1` [Compound 43, 2-(2-bromophenyl)-N-cyclohexylimidazo[1,2-a]pyridin-3-amine], the IC50 in assay [1] was determined as 2.21 µM; in assay [2], 10 µM. `Cc1cccc2nc(-c3ccccc3Cl)c(NC3CCCC3)n12` [Compound 171, 2-(2-chlorophenyl)-N-cyclopentyl-5-methylimidazo[1,2-a]pyridin-3-amine] came in with a 50% inhibitory concentration (IC50) in assay [2] of 1.43 µM.

As for `Clc1ccc(-c2nc3ccccn3c2NC2CCCCC2)c(Cl)c1` [Compound 89, N-cyclohexyl-2-(2,4-dichlorophenyl)imidazo[1,2-a]pyridin-3-amine], the IC50 is 2.95 µM in assay [1] and 21.8 µM in assay [2]. In assay [2], `Clc1ccccc1-c1nc2ccc3ccccc3n2c1NC1CCCCC1` [Compound 97, 2-(2-chlorophenyl)-N-cyclohexylimidazo[1,2-a]quinolin-1-amine] came in with an IC50 of 7.52 µM. As for `Cc1ccc(Cl)c(-c2nc3ccccn3c2NC2CCCCC2)c1F` [Compound 74, 2-(6-chloro-2-fluoro-3-methylphenyl)-N-cyclohexylimidazo[1,2-a]pyridin-3-amine], the IC50 in assay [1] was 2.36 µM; in assay [2], 90 µM. In turn, `Cc1ccc2nc(-c3ccccc3Cl)c(NC3CCCCC3)n2c1` [Compound 163, 2-(2-chlorophenyl)-N-cyclohexyl-6-methylimidazo[1,2-a]pyridin-3-amine] gave an IC50 in assay [2] of 5.39 µM. For the compound `Clc1ccccc1-c1nc2ccccn2c1NC1CCCCC1` [Compound 8, 2-(2-chlorophenyl)-N-cyclohexylimidazo[1,2-a]pyridin-3-amine], the IC50 in assay [3] was 0.16 µM. Consider `N#Cc1ccc2nc(-c3ccccc3Cl)c(NC3CCCCC3)n2c1` [Compound 96, 2-(2-chlorophenyl)-3-(cyclohexylamino)imidazo[1,2-a]pyridine-6-carbonitrile], for which the half-maximal inhibitory concentration (IC50) in assay [1] was 0.63 µM; in assay [2], 6.6 µM. In assay [2], `Clc1ccccc1-c1nc2cccc(Cl)n2c1NC1CCCCC1` [Compound 104, 5-chloro-2-(2-chlorophenyl)-N-cyclohexylimidazo[1,2-a]pyridin-3-amine] had an IC50 of 3.74 µM. As to `Cc1cccn2c(NC3CCCC3)c(-c3ccccc3Cl)nc12` [Compound 170, 2-(2-chlorophenyl)-N-cyclopentyl-8-methylimidazo[1,2-a]pyridin-3-amine], the half-inhibitory concentration (IC50) in assay [2] was found to be 15.9 µM. `Cc1ccnc2c1NC(=O)c1cccnc1N2C1CC1` [Nevirapine, reference compound]: the IC50 in assay [3] is 0.033 µM; in assay [1], 0.1 µM.

With `Fc1ccc2nc(-c3ccccc3Cl)c(NC3CCCCC3)n2c1` [Compound 81, 2-(2-chlorophenyl)-N-cyclohexyl-6-fluoroimidazo[1,2-a]pyridin-3-amine], the IC50 in assay [1] turned out to be 1.88 µM; in assay [2], 11.3 µM.

On to `Clc1ccc2nc(-c3ccccc3Cl)c(NC3CCCCC3)n2c1` [Compound 82, 6-chloro-2-(2-chlorophenyl)-N-cyclohexylimidazo[1,2-a]pyridin-3-amine], for which the IC50 in assay [1] is 0.84 µM; in assay [2] it was 14.5 µM. Consider `N#Cc1cccc2nc(-c3ccccc3Cl)c(NC3CCCCC3)n12` [Compound 116, 2-(2-chlorophenyl)-3-(cyclohexylamino)imidazo[1,2-a]pyridine-5-carbonitrile], for which the half-inhibitory concentration (IC50) in assay [2] was found to be 3.47 µM.

In the case of `Cc1cccc2nc(-c3ccccc3Cl)c(NC3CCCCC3)n12` [Compound 166, 2-(2-chlorophenyl)-N-cyclohexyl-5-methylimidazo[1,2-a]pyridin-3-amine], the midpoint of inhibition in assay [2], the IC50, lay at 1.55 µM.

`Clc1ccccc1-c1nc2ccccn2c1NC1CCCC1` [Compound 118, 2-(2-chlorophenyl)-N-cyclopentylimidazo[1,2-a]pyridin-3-amine] gave an IC50 in assay [1] of 2.19 µM.
